Laboratory results published in PubChem BioAssay (NCI).
Values joined by “and” are separate entries in the source; they are usually repeats but may differ in a detail not shown here. Identical values can stand only once.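 Exposure lasted 48 hours, with cells grown in 96-well plates and compounds tested at five concentrations. GI50 is the concentration that inhibits growth by half. TGI: total growth inhibition.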

Legend:
Assay in all cases: NCI-60 cell line screen, 48 h
[1] = test system: MCF7 breast
[2] = test system: OVCAR-5 ovarian
[3] = test system: NCI-H460 lung
[4] = test system: KM12 colon
[5] = test system: NCI-H23 lung
[6] = test system: A549 NSCLC
[7] = test system: OVCAR-4 ovarian
[8] = test system: RPMI-8226 leukemia
[9] = test system: UACC-62 melanoma
[10] = test system: A498 renal

Compound | GI50 [1] | TGI [1] [µM] | GI50 [2] | TGI [2] | GI50 [3] | TGI [3] | GI50 [4] | TGI [4] [µM] | GI50 [5] | TGI [5] | GI50 [6] | TGI [6] | GI50 [7] | TGI [7] | GI50 [8] | TGI [8] | GI50 [9] | TGI [9] | GI50 [10] | TGI [10]
Clc1nc(Cl)c2ncn(C/C=C/COc3cccc(OC/C=C/Cn4cnc5c(Cl)nc(Cl)nc54)c3)c2n1 | 73.5 µM | > 100 | > 100 µM | > 100 µM | > 100 µM | > 100 µM | 56.5 µM | > 100 | > 100 µM | > 100 µM | > 100 µM | > 100 µM | 36.3 µM | > 100 µM | 25.3 µM | > 100 µM | > 100 µM | > 100 µM | > 100 µM | > 100 µM
O=C(NC[C@H](O)CO)c1ccncc1Nc1ccc(I)cc1F | > 10 µM and 15.5 µM | > 100 | 0.0104 µM and 0.0151 µM | > 100 µM | > 10 µM and 11.8 µM | > 100 µM | 0.111 µM and 0.154 µM | > 100 | 0.0913 µM and 0.0707 µM | > 71.8 µM | 0.694 µM and 1.79 µM | > 75.8 µM | > 7.46 µM and 10.6 µM | > 100 µM | > 10 µM and 28.4 µM | > 100 µM | 0.00248 µM and < 0.01 µM | 0.0292 µM | 0.03 µM and 0.0394 µM | 0.417 µM and 0.517 µM
CCN(CC)Cc1ccc(Nc2nccc(-c3cnn4ncccc34)n2)cc1 | 0.017 µM | 14.8 | 0.0209 µM | > 25 µM | 0.0169 µM | 2.99 µM | 0.0101 µM | 0.102 | 0.0217 µM | 0.126 µM | 0.0163 µM | > 25 µM | 0.0766 µM | 9.99 µM | 0.0749 µM | 1.76 µM | 0.0188 µM | 0.0694 µM | 0.0144 µM | 0.0452 µM
COc1ccc(/C=C\c2cc(OC)c(OC)c(OC)c2)cc1OC | – | > 100 | 0.324 µM | 40.4 µM and > 100 µM | 0.181 µM | 40.4 µM and 16.7 µM | 0.0513 µM | – | 0.447 µM | 40.4 µM and > 100 µM | 0.211 µM | 40.4 µM and > 100 µM | 11.6 µM | 40.4 µM and > 100 µM | 0.224 µM | 12.4 µM and 15.8 µM | 0.036 µM | 40.4 µM and > 100 µM | – | 40.4 µM
O=C(Nc1cccc(NC(=O)Nc2cc(C(F)(F)F)ccc2Cl)c1)Nc1cc(C(F)(F)F)ccc1Cl | 0.516 µM | 32.9 | 9.01 µM | > 100 µM | 2.22 µM | 10.5 µM | 1.53 µM | 57.1 | 2.61 µM | 15.9 µM | 1.95 µM | 15.8 µM | 0.746 µM | 3.61 µM | 1.87 µM | 50.7 µM | 2.35 µM | 16.8 µM | 1.48 µM | 7.63 µM
Cn1cc(C2=C(c3cccc(OCC(O)CO)c3)C(=O)NC2=O)c2ccccc21 (configuration not stated) | > 25 µM | > 25 | > 25 µM | > 25 µM | > 25 µM | > 25 µM | > 25 µM | > 25 | > 25 µM | > 25 µM | > 25 µM | > 25 µM | > 25 µM | > 25 µM | > 25 µM | > 25 µM | > 25 µM | > 25 µM | > 25 µM | > 25 µM
